{
  "source": "patent US12704521B2",
  "about": "“On-site rapid quantification of tetrahydrocannabinol” (The General Hospital Corporation, priority 2020, dated 2026)",
  "key": {"[1]": {"test": "EPOCH test of oral fluid samples from cannabis users", "assay_type": "in vivo, human", "description": "Informed consent was obtained from all subjects (cannabis smoker […]). Cannabis users were asked to take saliva samples right after cannabis smoking. Specifically, they were instructed to take a disposable swab (diameter, 1 cm; length, 1.5 cm) into the mouth and roll it for about one minute. The swab was then placed into the sample processing kit. Control samples were collected in the same manner from volunteers who self-declared no history of cannabis use. For the time-course monitoring, three cannabis smokers collected saliva samples hourly after their last smoking. Cylindrical saliva swabs were purchased (SalivaBio Oral Swab, Salimetrics, USA). These swabs were cut in the middle of their height to fit into the sample processing kit. Each halved swab collected about 0.5 mL of saliva.\nNext, EPOCH was used for onsite THC detection. Oral fluid samples from recreational cannabis users (40 cannabis smokers and three THC jelly users) were collected within 10 minutes of product consumption and then tested. As a control, oral fluid samples were also assessed from non-cannabis users (13 traditional tobacco smokers and 30 non-smokers) without a history of cannabis use. […] We observed no significant difference between male and female subjects in any of the cohorts (P>0.05, two-sided Mann-Whitney test; FIG. 5C).\nWe also monitored how THC levels changed over time after cannabis smoking. In this case, oral fluid samples were collected hourly after the inhalation and subjected to the EPOCH tests."}, "[2]": {"test_system": "AuNPAb (THC antibody-coated gold nanoparticles)", "test": "isothermal titration calorimetry of binding to AuNPAb"}},
  "data": [
    {"compound": "CCCCCc1cc(O)c2c(c1)OC(C)(C)[C@@H]1CCC(C)=C[C@@H]21", "note": "[THC, Δ^9-tetrahydrocannabinol]", "values": [
      {"measurement": "oral THC concentration in all cannabis-user samples", "setting": "[1]; 43 cannabis users shortly after consumption, versus regulatory guideline", "value": "> 1", "unit": "ng/mL"},
      {"measurement": "half-life of THC in saliva", "setting": "[1]; after cannabis smoking, hourly samples, three users, single-phase exponential decay", "value": 1.4, "unit": "h"},
      {"measurement": "oral THC concentration (average/median)", "setting": "[1]; cannabis smokers, oral fluid collected within 10 minutes of consumption", "value": 478, "unit": "ng/mL"},
      {"measurement": "half-life", "setting": "[1]; human, saliva, inhaled, after cannabis smoking, hourly samples, three users, single-phase exponential decay, read-out: half-life of THC in saliva (converted)", "value": 1.4, "unit": "h"},
      {"measurement": "concentration at 6 h", "setting": "[1]; human, saliva, po, six hours after cannabis smoking, read-out: oral THC level", "value": "> 1", "unit": "ng/mL"},
      {"measurement": "association constant Ka with AuNPAb", "setting": "[2]", "value": 0.074, "unit": "nM⁻¹"}
    ]}
  ]
}
